Measurements taken from ChEMBL document CHEMBL3217415, “(Pd/C-mediated)couplingiodocyclizationcoupling strategy in discovery of novel PDE4 inhibitors: a new synthesis of pyrazolopyrimidines” (Medchemcomm, 2012).
Activity calls are given as the source filed them. No cut-off for these calls is given here.

How the values were obtained:
[1] = molecular target: T1, 3',5'-cyclic-AMP phosphodiesterase 4B (Homo sapiens, UniProt Q07343); experiment: Inhibition of His-tagged recombinant human PDE4B expressed in baculovirus infected sf9 cells using cAMP as substrate at 30 uM preincubated for 15 mins followed by substrate addition measured after 1 hr by luminescence assay
T1 sequence (Q07343 whole entry): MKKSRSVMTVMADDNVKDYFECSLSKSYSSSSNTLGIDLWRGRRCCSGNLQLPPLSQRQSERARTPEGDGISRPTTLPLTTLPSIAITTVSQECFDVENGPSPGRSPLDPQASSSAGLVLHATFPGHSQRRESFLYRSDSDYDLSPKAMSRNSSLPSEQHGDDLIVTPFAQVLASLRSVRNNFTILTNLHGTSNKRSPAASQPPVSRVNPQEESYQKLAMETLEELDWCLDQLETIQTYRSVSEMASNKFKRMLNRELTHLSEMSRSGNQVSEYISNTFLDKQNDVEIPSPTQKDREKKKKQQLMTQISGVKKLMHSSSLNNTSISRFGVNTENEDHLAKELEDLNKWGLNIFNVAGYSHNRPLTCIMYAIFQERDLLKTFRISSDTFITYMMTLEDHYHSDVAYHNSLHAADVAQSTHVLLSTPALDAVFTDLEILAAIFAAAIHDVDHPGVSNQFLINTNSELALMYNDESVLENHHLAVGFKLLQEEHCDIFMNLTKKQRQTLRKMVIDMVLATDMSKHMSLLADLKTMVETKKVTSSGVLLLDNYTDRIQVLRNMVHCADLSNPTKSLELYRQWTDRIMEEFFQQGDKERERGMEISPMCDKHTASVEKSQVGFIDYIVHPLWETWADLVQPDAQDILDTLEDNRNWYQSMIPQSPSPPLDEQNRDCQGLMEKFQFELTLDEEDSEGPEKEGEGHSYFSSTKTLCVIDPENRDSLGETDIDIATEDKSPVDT

RAW264.7 = experiment: Inhibition of LPS-induced TNFalpha production in mouse RAW264.7 cells pretreated for 30 mins before LPS challenge by ELISA assay; format: functional, cell-based
Danio rerio [2] = species on record: Danio rerio; experiment: Toxicity in zebrafish embryo assessed as cardiac arrhythmia at 10 to 20 uM after 24 hrs by compound microscopy; format: organism-based, Heart; settings: in vivo
Danio rerio [3] = species on record: Danio rerio; experiment: Toxicity in zebrafish embryo assessed as effect on locomotory activity at 10 to 20 uM after 1 to 24 hrs; format: organism-based; settings: in vivo
Danio rerio [4] = species on record: Danio rerio; experiment: Toxicity in zebrafish embryo assessed as mortality at 10 to 20 uM after 1 to 24 hrs; format: organism-based; settings: in vivo
Danio rerio [5] = species on record: Danio rerio; experiment: Toxicity in zebrafish embryo assessed as increase in abnormal lesions at 10 to 20 uM after 24 hrs; format: organism-based; settings: in vivo
Danio rerio [6] = species on record: Danio rerio; experiment: Toxicity in zebrafish embryo assessed as lordosis at 10 to 20 uM after 1 to 24 hrs; format: organism-based; settings: in vivo
Danio rerio [7] = species on record: Danio rerio; experiment: Toxicity in zebrafish embryo assessed as effect on locomotory activity at 100 uM; format: organism-based; settings: in vivo
Danio rerio [8] = species on record: Danio rerio; experiment: Toxicity in zebrafish embryo assessed as mortality at 100 uM after 1 to 24 hrs; format: organism-based; settings: in vivo
[9] = molecular target: T2, 3',5'-cyclic-AMP phosphodiesterase 4D (Homo sapiens, UniProt Q08499); experiment: Inhibition of PDE4D3 (unknown origin) transfected in HEK293 cells assessed as forskolin-induced cAMP accumulation pretreated for 30 mins before forskolin challenge by luciferase reporter gene assay; format: cell-based
T2 sequence (Q08499 whole entry): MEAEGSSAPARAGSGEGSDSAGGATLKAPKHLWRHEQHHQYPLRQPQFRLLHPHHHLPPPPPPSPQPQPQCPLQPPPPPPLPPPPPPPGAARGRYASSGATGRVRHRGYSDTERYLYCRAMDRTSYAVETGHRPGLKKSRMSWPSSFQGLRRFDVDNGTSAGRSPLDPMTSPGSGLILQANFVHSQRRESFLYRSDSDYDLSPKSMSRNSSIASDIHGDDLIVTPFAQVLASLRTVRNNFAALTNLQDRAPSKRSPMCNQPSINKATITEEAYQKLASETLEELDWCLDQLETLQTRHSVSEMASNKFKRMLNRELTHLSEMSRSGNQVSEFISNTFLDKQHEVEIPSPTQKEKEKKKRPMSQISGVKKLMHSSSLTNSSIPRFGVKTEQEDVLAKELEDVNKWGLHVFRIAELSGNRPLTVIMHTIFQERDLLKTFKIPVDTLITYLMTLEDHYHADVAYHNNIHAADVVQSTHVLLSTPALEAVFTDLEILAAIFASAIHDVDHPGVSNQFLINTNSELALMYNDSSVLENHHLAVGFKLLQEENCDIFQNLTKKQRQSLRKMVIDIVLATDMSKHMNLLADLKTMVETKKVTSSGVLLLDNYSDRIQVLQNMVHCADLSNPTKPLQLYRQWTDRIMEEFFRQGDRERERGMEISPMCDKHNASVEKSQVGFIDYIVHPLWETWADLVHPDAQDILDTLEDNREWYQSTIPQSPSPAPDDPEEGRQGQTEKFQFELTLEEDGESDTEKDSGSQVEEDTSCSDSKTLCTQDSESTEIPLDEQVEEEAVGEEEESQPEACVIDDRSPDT

[10] = molecular target: 3',5'-cyclic-AMP phosphodiesterase 4A (Homo sapiens, UniProt P27815); experiment: Inhibition of PDE4A4 (unknown origin) transfected in HEK293 cells assessed as forskolin-induced cAMP accumulation pretreated for 30 mins before forskolin challenge by luciferase reporter gene assay; format: cell-based
Chain of 3',5'-cyclic-AMP phosphodiesterase 4A (P27815 whole entry): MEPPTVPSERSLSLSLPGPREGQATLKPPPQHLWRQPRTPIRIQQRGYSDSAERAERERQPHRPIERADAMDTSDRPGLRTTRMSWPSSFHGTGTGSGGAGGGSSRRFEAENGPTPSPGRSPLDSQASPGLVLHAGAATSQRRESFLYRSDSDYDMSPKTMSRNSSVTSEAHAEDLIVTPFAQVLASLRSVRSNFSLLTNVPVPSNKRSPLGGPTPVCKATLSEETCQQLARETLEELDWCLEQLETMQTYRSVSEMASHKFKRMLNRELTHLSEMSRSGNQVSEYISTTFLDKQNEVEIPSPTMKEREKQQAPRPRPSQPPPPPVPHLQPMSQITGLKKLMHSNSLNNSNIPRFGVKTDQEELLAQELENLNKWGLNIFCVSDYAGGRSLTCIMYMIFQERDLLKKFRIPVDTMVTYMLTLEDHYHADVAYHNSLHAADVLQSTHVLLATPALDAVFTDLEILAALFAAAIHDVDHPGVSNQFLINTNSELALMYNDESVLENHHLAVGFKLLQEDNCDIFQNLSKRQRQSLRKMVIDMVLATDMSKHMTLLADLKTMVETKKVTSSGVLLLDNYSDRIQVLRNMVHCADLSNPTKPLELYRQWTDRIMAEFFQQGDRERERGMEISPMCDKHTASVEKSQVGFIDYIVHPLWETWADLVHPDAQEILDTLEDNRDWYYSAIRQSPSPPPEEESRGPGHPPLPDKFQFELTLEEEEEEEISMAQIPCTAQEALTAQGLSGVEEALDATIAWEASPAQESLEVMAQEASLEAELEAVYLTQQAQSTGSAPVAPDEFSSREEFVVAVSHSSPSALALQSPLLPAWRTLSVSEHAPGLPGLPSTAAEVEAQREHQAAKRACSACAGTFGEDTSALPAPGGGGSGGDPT

[11] = molecular target: T1, 3',5'-cyclic-AMP phosphodiesterase 4B; experiment: Inhibition of His-tagged recombinant human PDE4B1 expressed in baculovirus infected sf9 cells using cAMP as substrate preincubated for 15 mins followed by substrate addition measured after 1 hr by luminescence assay
Danio rerio [12] = species on record: Danio rerio; experiment: Toxicity in zebrafish embryo assessed as effect on locomotory activity at 20 uM after 24 hrs; format: organism-based; settings: in vivo
[13] = molecular target: T2, 3',5'-cyclic-AMP phosphodiesterase 4D; experiment: Inhibition of human PDE4D2 using cAMP substrate preincubated for 15 mins followed by substrate addition measured after 1 hr by luminescence assay
[14] = molecular target: T1, 3',5'-cyclic-AMP phosphodiesterase 4B; experiment: Inhibition of PDE4B1 (unknown origin) transfected in HEK293 cells assessed as forskolin-induced cAMP accumulation pretreated for 30 mins before forskolin challenge by luciferase reporter gene assay; format: cell-based
Danio rerio [15] = species on record: Danio rerio; experiment: Toxicity in zebrafish embryo assessed as effect on locomotory activity at 10 uM after 6 hrs; format: organism-based; settings: in vivo

How did the inhibition [1] turn out when `CCCCCC#Cc1c(CCCCCC)oc(=O)c2c1nn1c(-c3ccccc3)ccnc21` was run?
Its inhibition is 50%.

For `COc1ccc(C2CNC(=O)C2)cc1OC1CCCC1` (stereo not drawn) [ROLIPRAM], which IC50 (RAW264.7) is on record?
Its IC50 is 190 nM.

What about the Activity (Danio rerio [2]) of the same molecule?
Its Activity is “Non-toxic”.

And the Activity (Danio rerio [3])?
Its Activity is “Toxic”.

And the Activity (Danio rerio [4])?
Its Activity is “Toxic”.

And the Activity (Danio rerio [5])?
Its Activity is “Toxic”.

What about the Activity (Danio rerio [6]) of the same molecule?
The Activity was “Toxic”.

Which Activity (Danio rerio [7]) does the source give for `CC(C)(C)c1ccc(C(O)CCCN2CCC(C(O)(c3ccccc3)c3ccccc3)CC2)cc1` (stereo not drawn) [TERFENADINE] here?
Its Activity is “Toxic”.

What about the Activity (Danio rerio [8]) of the same molecule?
Its Activity is “Toxic”.

How did the inhibition [1] turn out when `O=c1oc(-c2ccccc2)c(-c2ccc(F)cc2)c2nn3c(-c4ccccc4)ccnc3c12` was run?
Its inhibition is 66%.

How did the inhibition [1] turn out when `CCCCCCc1oc(=O)c2c(nn3c(-c4ccccc4)ccnc23)c1/C=C/C(=O)OC(C)(C)C` was run?
The inhibition was “inactive”.

With `CCCCCCc1oc(=O)c2c(nn3c(-c4ccccc4)ccnc23)c1/C=C/C(=O)OCC` as the molecule, how does the inhibition [1] read?
The inhibition was “inactive”.

How did the inhibition [1] turn out when `O=c1oc(-c2ccccc2)c(-c2cnc3ccccc3c2)c2nn3c(-c4ccccc4)ccnc3c12` was run?
Its inhibition is 74%.

With `CCCCCCc1oc(=O)c2c(nn3c(-c4ccccc4)ccnc23)c1-c1cccc(C(N)=O)c1` as the molecule, how does the inhibition [1] read?
The inhibition was 85%.

With `NC(=O)c1cccc(-c2c(-c3ccccc3)oc(=O)c3c2nn2c(-c4ccccc4)ccnc32)c1` as the molecule, how does the IC50 (RAW264.7) read?
Its IC50 is 450 nM.

And the EC50 [9]?
Its EC50 is 9620 nM.

And the Activity (Danio rerio [2])?
Its Activity is “Non-toxic”.

What about the EC50 [10] of the same molecule?
The EC50 was 11700 nM.

And the IC50 [11]?
The IC50 was 1330 nM.

And the Activity (Danio rerio [12])?
Its Activity is “Non-toxic”.

What about the IC50 [13] of the same molecule?
The IC50 was 2840 nM.

What about the Activity (Danio rerio [4]) of the same molecule?
The Activity was “Non-toxic”.

What about the Activity (Danio rerio [5]) of the same molecule?
Its Activity is “Non-toxic”.

And the inhibition [1]?
Its inhibition is 93%.

What about the EC50 [14] of the same molecule?
Its EC50 is 6320 nM.

And the Activity (Danio rerio [15])?
The Activity was “Toxic”.

`O=c1oc(-c2ccccc2)c(-c2cccc([N+](=O)[O-])c2)c2nn3c(-c4ccccc4)ccnc3c12` was tested. Which inhibition [1] did it give?
The inhibition was 74%.

`CCCCCC#Cc1c(-c2ccccc2)oc(=O)c2c1nn1c(-c3ccccc3)ccnc21` was tested. Which inhibition [1] did it give?
Its inhibition is 50%.
